Common to all, as to experiment: DTP human tumour cell line panel, 48 h
The subject of test [1] is SNB-75 CNS.
Test [2] deals with SK-MEL-2 melanoma.
The subject of test [3] is MOLT-4 leukemia.
In test [4] the test system is ACHN renal.
Test [5] deals with DU-145 prostate.
For test [6], the system named is SF-268 CNS.
Test [7] has as its system 786-0 renal.
Test [8] relates to UACC-62 melanoma.
For test [9], the system named is SK-MEL-5 melanoma.
Test [10] concerns OVCAR-4 ovarian.

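96-well plates; 48 h exposure; 5 concentrations. Endpoints by linear interpolation between flanking doses. Not reached: highest tested concentration assigned. GI50: concentration for 50% inhibition of growth. TGI marks complete inhibition of growth.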

For orientation: GI50 means the concentration at which growth is held to half of that of the control. Broadly, the TGI is the concentration at which net growth stops. Higher therefore signals lower sensitivity of the cells. For `OCCNc1nc(Nc2ccc(Cl)c(Cl)c2)nc2ccccc12`, the GI50 in test [1] is 4.79 µM; in test [2], 16.4 µM; in test [3], 1.87 µM; in test [4], 4.8 µM; in test [5], 11 µM; in test [6], 6.78 µM. Moreover, the GI50 was 3.04 µM in test [7], 10.9 µM in test [8], 4.75 µM in [9] and 4.64 µM in test [10]. Further, the TGI is 18.7 µM in test [1]; 33.1 µM in test [2]; 13.2 µM in [3]; 18.3 µM in [4]; 22.9 µM in test [5]; 20.8 µM in [6]. The total growth inhibition concentration (TGI) in test [7] turned out to be 11 µM; in test [8], 23.5 µM; in test [9], 17.7 µM; in [10] it was 18.4 µM.

Regarding `CCCCCCCCCNC(=O)/C=C/c1ccc(O)c(O)c1`, the GI50 in [1] was 15.4 µM; in [2] it was 17.3 µM; in test [3], 0.474 µM; in [4] it was 6.96 µM; in test [5] it was 17 µM; in test [6] it was 10.9 µM. Moreover, the GI50 in test [7] is 14.3 µM; in [8] it was 15.3 µM; in [9], 1.34 µM; in test [10], 13.4 µM. Further, the concentration for total growth inhibition (TGI) was found to be 85.2 µM in test [1]; 37.2 µM in test [2]; 17.4 µM in test [3]; 21.6 µM in [4]; 82.1 µM in [5]; 31.9 µM in test [6]. In addition, the concentration for total growth inhibition (TGI) in test [7] is 29.7 µM; in [8], 29 µM; in test [9], 10.8 µM; in test [10], greater than 100 µM.

On to `O=C(Nc1cccc(-c2ccc(Cl)c(C(F)(F)F)c2)c1)C1CCN(Cc2cccc3cccnc23)CC1`, for which the GI50 was 1.39 µM in [1]; 1.99 µM in test [2]; 1.79 µM in test [3]; 1.76 µM in test [4]; 1.79 µM in [5]; 1.79 µM in test [6]. Moreover, the GI50 is 1.7 µM in test [7], 1.69 µM in test [8], 1.53 µM in [9] and 1.59 µM in test [10]. Moreover, the TGI in test [1] was 2.71 µM; in test [2] it was 3.85 µM; in test [3], 4.52 µM; in test [4], 3.14 µM; in test [5], 3.21 µM; in [6] it was 3.55 µM. Moreover, the TGI in test [7] is 3.26 µM; in [8] it was 3.09 µM; in test [9], 2.89 µM; in test [10] it was 3.08 µM.

Take `Oc1ccc(C2c3ccccc3Oc3ccccc32)c2cccnc12`: the GI50 was 6.96 µM in test [1]; 2.31 µM in [2]; 1.96 µM in test [3]; 0.845 µM in test [4]; 1.94 µM in test [5]; 1.29 µM in [6]. In addition, the GI50 in [7] was 1.64 µM; in [8], 1.88 µM; in [9] it was 1.62 µM; in test [10] it was 2.08 µM. The TGI was greater than 100 µM in test [1]; 69.5 µM in test [2]; greater than 100 µM in test [3]; 9.58 µM in [4]; greater than 100 µM in [5]; greater than 100 µM in [6]. The TGI in test [7] was 4.85 µM; in [8] it was 8.07 µM; in [9], 8.66 µM; in test [10], greater than 100 µM.

For `O=C1OC(=O)C2CCCC3CCCC1C32` (stereo not given), the TGI in test [1], in [2], in [3], in test [4], in [5] and in test [6] was greater than 100 µM throughout. The TGI in test [7], in test [8], in [9] and in test [10] was greater than 100 µM each time.

As for `CC1=C(C(=O)Nc2cc(Cl)c3[nH]ncc3c2)C(c2ccc(C(F)(F)F)cc2)CC(=O)N1` (stereo not given), the GI50 in test [1] is 3.13 µM; in test [2] it was greater than 25 µM; in test [3], 11.8 µM; in test [4], greater than 25 µM; in test [5] it was greater than 25 µM; in [6], 11.7 µM. Moreover, the GI50 in test [7] is 11.7 µM; in test [8], 19 µM; in test [9], 11.4 µM; in test [10], greater than 25 µM. Moreover, the concentration for total growth inhibition (TGI) in test [1], in [2], in test [3], in [4], in test [5] and in [6] was greater than 25 µM throughout. The TGI in [7], in test [8], in test [9] and in [10] was greater than 25 µM throughout.

On to `Cc1ccc(NC(=O)CSc2nnc3n(Cc4ccccc4)c(=O)c4c(C)c(C(N)=O)sc4n23)cc1`, for which the GI50 in test [1] was 5.72 µM; in [2], 16 µM; in test [3] it was 27.3 µM; in test [4], 19.9 µM; in test [5] it was 60.5 µM; in test [6], 14.4 µM. Moreover, the GI50 in [7] was 10 µM; in test [8] it was greater than 100 µM; in [9], greater than 100 µM; in [10], greater than 100 µM. The TGI in [1] was 23.8 µM; in [2], 43.3 µM; in test [3], 81.5 µM; in test [4], 51 µM; in test [5], greater than 100 µM; in test [6], 86.8 µM. The total growth inhibition concentration (TGI) in [7] is 49.7 µM; in test [8], greater than 100 µM; in test [9] it was greater than 100 µM; in test [10], greater than 100 µM.

As for `CCn1c(-c2nonc2N)nc2c(C#CC(C)(C)O)ncc(OC[C@H]3CCCNC3)c21`, the GI50 was 0.0584 µM in test [1]; 7.57 µM in test [2]; 0.23 µM in test [3]; 25.7 µM in test [4]; 12.9 µM in test [5]; 16.1 µM in test [6]. Besides, the GI50 is 0.46 µM in test [7], 12.9 µM in test [8], 14.3 µM in [9] and 31.4 µM in [10]. The total growth inhibition concentration (TGI) was 1.54 µM in [1]; 23 µM in test [2]; 31.5 µM in test [3]; greater than 100 µM in [4]; 73.8 µM in [5]; 37.4 µM in test [6]. Also, the TGI in [7] stood at 16 µM; in [8] it was 28.2 µM; in [9], 31.2 µM; in test [10], 92.2 µM.

For the origin of these results see PubChem BioAssay (NCI).
